Test results published in patent US10188634B2, “3-(3H-imidazo[4,5-C]pyridin-2-yl)-1 H-pyrazolo[4,3-B]pyridines and therapeutic uses thereof” (Samumed, LLC, priority 2015, dated 2019).
pEC50: −log10 of the molar value.

Tests used:
Assay type in all cases: cell-based
[1] = system: SW480 colon cancer cells; assay: Cell viability assay (CellTiter-Blue) in SW480 colon cancer cells; conditions: Homo sapiens, 96 h; for inhibition at 10 µM: four days, CellTiter-Blue, read-out: percent inhibition at 10 μM (given for EC50 of >10 μM); for pEC50: four days incubation, CellTiter-Blue cell viability
Summary of the method: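 About 2×10^3 SW480 colon cancer cells per well were exposed to compound (8-point 1:3 dilutions, 10 μM to 0.004 μM) for four days at 37 °C. Viability was read by CellTiter-Blue resazurin reduction (~3 h, Ex 560/Em 590). EC50 from nonlinear regression; above 10 μM, % inhibition at 10 μM is reported.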

[2] = system: IL-6 in THP-1 cells; assay: Inhibition of IL-6 in LPS-stimulated THP-1 human monocyte cells (HTRF); conditions: IL-6 HTRF; for pEC50: 500 ng/mL LPS, 22 hours; for inhibition at 10 µM: LPS, read-out: percent inhibition in brackets (given for EC50 >10 μM)
Summary of the method: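 THP-1 cells, serum-reduced (1% FBS) for 24 h, were exposed to compound (1:3, 10-point series from 10 μM; 0.1% DMSO) for 2 h, then 500 ng/mL LPS for 22 h at 37° C. Secreted IL-6 measured by HTRF (665/620 ratio), normalised to DMSO; EC50 by four-parameter fit, else % inhibition at 10 μM.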

[3] = system: LL29 cells (primary human fibroblasts derived from IPF patients) treated with TGF-β1, α-smooth muscle actin; assay: Inhibition of the fibrotic process: αSMA staining in TGF-β1 treated primary human fibroblasts from IPF patients (LL29 cells); conditions: Fibroblast, 96 h; for pEC50: LL29 cells treated with TGF-β1 (20 ng/mL), 4 days

Row | Structure (SMILES) | inhibition at 10 µM [1] [%] | pEC50 [1] | pEC50 [2] | inhibition at 10 µM [2] [%] | pEC50 [3] | inhibition at 10 µM ([3]; LL29 cells treated with TGF-β1, 4 days, at 10 μM, read-out: percent inhibition in brackets (given for EC50 >10 μM)) [%]
1 | Cn1cc(-c2ccc3[nH]nc(-c4nc5c(-c6ccc(F)cc6)cncc5[nH]4)c3n2)c(CO)n1 [Compound 1084, (4-(3-(7-(4-Fluorophenyl)-3H-imidazo[4,5-c]pyridin-2-yl)-1H-pyrazolo[4,3-b]pyridin-5-yl)-1-methyl-1H-pyrazol-3-yl)methanol] | 5.7 | < 5.00 | < 5.00 | 4.1 | 5.64 | –
2 | Cn1cc(-c2ccc3[nH]nc(-c4nc5c(N6CCCCC6)cncc5[nH]4)c3n2)c(CO)n1 [Compound 1089, (1-Methyl-4-(3-(7-(piperidin-1-yl)-3H-imidazo[4,5-c]pyridin-2-yl)-1H-pyrazolo[4,3-b]pyridin-5-yl)-1H-pyrazol-3-yl)methanol] | 15.5 | < 5.00 | 6.28 | – | < 5.00 | 36
3 | Cn1cc(-c2ccc3[nH]nc(-c4nc5c(-c6ccc7c(c6)OCO7)cncc5[nH]4)c3n2)c(CO)n1 [Compound 1106, (4-(3-(7-(Benzo[d][1,3]dioxol-5-yl)-3H-imidazo[4,5-c]pyridin-2-yl)-1H-pyrazolo[4,3-b]pyridin-5-yl)-1-methyl-1H-pyrazol-3-yl)methanol] | 3.1 | < 5.00 | < 5.00 | 0 | 5.62 | –
